Source: publication PMC6529438 (2019)
Values belong to the molecule of their own block, whether it stands above or below them.

Legend:
Test in all cases: graphene oxide FRET fluorescence recovery with DNase I amplification
Details in all cases: 5 mM Mg2+, 15 mM Na+, 20 mM Tris-HCl, 0.001% PEG 900, pH 8.0
[1] = tested on: Cy3-modified sulfadimethoxine aptamer (P1) (DNA, aptamer) GAGGGCAACGAGTGTTTATAGA
[2] = tested on: Cy5-modified ampicillin aptamer (P3) (DNA, aptamer) GCGGGCGGTTGTATAGCGG
[3] = tested on: FAM-modified kanamycin aptamer (P2) (DNA, aptamer) TGGGGGTTGAGGCTAAGCCGA
[4] = 10-500 ng/mL, room temperature, then 37 °C with DNase I
[5] = 500 ng/mL, mixed aptamers, very weak signal change

binding ([1]; 500 ng/mL, with kanamycin none, alone weak signal change): no | binding [2, 4]: yes | binding ([3]; 500 ng/mL, mixed aptamers, weak signal change only): weak
SMILES: CC1(C)S[C@@H]2[C@H](NC(=O)[C@H](N)c3ccccc3)C(=O)N2[C@H]1C(=O)O

binding [1, 4]: yes | binding [2, 5]: no | binding [3, 5]: no
SMILES: COc1cc(NS(=O)(=O)c2ccc(N)cc2)nc(OC)n1

binding ([1]; 500 ng/mL kanamycin with 500 ng/mL ampicillin, mixed aptamers): no | binding [3, 4]: yes
SMILES: NC[C@H]1O[C@H](O[C@H]2[C@H](O)[C@@H](O[C@H]3O[C@H](CO)[C@@H](O)[C@H](N)[C@H]3O)[C@H](N)C[C@@H]2N)[C@H](O)[C@@H](O)[C@@H]1O
